Experimental data taken from US20100210568A1, “T[…] HORMONE FOR […] APPLICATIONS” (priority 2007, published 2010).

Tested on: drug-resistant Mycobacterium tuberculosis
Conditions: peptide 10 micrograms per ml, seven days

Compound: NC(=O)[C@@H]1CCCN1C(=O)[C@H](Cc1cnc[nH]1)NC(=O)[C@@H]1CCC(=O)N1 [TRH, Pyr-His-Pro-NH2]
- % inhibition: 0.0%
